{"source": "paper PMC7246003", "about": "(Medicinal Chemistry Research, 2020)", "key": {"[1]": {"biological_target": "T1, IAV RdRp from A/PR/8/34/H1N1 strain (Influenza A virus, UniProt P03428+P03431)", "T1 sequence (P03428 whole entry, looked up)": "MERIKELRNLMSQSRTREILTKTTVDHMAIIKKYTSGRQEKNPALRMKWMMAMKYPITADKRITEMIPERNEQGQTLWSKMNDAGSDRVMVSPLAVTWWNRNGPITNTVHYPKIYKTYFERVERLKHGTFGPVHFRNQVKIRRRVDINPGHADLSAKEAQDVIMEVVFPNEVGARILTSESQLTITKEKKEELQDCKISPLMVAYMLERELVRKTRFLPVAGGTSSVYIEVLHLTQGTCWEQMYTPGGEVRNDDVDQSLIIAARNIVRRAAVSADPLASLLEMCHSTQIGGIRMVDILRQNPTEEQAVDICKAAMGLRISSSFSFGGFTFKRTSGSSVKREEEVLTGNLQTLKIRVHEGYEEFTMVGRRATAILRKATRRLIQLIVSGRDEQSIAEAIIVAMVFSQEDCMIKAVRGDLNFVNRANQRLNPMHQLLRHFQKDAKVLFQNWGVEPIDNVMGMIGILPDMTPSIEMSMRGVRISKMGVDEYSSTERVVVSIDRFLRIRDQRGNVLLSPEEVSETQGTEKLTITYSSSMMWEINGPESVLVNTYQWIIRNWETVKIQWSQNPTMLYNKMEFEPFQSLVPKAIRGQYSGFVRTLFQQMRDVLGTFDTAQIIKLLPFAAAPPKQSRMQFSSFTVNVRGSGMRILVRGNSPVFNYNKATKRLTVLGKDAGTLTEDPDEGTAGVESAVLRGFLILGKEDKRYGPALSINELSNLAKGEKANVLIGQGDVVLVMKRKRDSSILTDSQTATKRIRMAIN", "T1 sequence (P03431 whole entry, looked up)": "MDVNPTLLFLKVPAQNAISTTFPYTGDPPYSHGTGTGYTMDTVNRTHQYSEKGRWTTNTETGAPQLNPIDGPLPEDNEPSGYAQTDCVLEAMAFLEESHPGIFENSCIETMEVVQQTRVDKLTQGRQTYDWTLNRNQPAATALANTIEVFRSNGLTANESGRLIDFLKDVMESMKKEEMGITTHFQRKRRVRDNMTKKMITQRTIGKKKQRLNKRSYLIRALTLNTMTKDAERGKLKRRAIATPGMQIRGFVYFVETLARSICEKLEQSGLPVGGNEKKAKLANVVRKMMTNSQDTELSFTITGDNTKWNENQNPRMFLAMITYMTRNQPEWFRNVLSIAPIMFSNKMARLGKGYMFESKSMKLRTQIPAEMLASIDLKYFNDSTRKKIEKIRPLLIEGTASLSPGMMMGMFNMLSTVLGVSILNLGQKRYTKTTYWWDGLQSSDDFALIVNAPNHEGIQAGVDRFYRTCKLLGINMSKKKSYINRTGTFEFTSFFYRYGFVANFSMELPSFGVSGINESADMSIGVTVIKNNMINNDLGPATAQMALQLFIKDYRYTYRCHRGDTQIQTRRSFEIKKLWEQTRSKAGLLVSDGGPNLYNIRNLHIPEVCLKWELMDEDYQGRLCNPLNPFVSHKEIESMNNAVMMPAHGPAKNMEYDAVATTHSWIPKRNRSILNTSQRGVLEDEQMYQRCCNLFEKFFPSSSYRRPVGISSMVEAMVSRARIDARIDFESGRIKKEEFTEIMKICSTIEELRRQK", "format": "biochemical, influenza virus A/PR/8/34/H1N1"}, "[2]": {"biological_target": "T1, IAV RdRp from A/PR/8/34/H1N1 strain", "conditions": "inhibiting the transcriptional activity of viral polymerase; ref Pagadala [2019]; cited from earlier work"}}, "note": "Like-named read-outs stand apart in the source and are kept apart here."}
{"compound": "5′-Dimethoxytrityl-2′-tosyl-N2-isobutyryl-guanosine [Compound 7]", "values": [{"measurement": "IC25", "setting": "[1]", "result": 0.25, "unit": "µM"}, {"measurement": "IC50", "setting": "[1]", "result": 0.68, "unit": "µM"}]}
{"compound": "Cc1cn([C@H]2C[C@H](N=[N+]=[N-])[C@@H](CO[P@](=O)(O)O[P@](=O)(O)OP(=O)(O)O)O2)c(=O)[nH]c1=O", "note": "[3′-azido-3′-deoxy-thymidine-5′-triphosphate]", "values": [{"measurement": "IC50", "setting": "[2]", "result": 1.12, "unit": "µM"}]}
{"compound": "Nc1nc2c(ncn2[C@@H]2O[C@H](COP(=O)(O)OP(=O)(O)OP(=O)(O)O)[C@@H](O)[C@H]2F)c(=O)[nH]1", "note": "[Compound 12, 2′-deoxy-2′-fluoroguanosine 5′-triphosphate]", "values": [{"measurement": "IC50", "setting": "[2]", "result": 1.12, "unit": "µM"}]}
